Measurements reported in publication PMC3408500, “Development of a High-Throughput Assay for Identifying Inhibitors of TBK1 and IKKε” (PLoS ONE, 2012).
Values joined by “and” are separate entries in the source; they are usually repeats but may differ in a detail not shown here. Equal entries are not always repeated. Structures can show the parent of a compound that is named as a salt. Where two headings read alike, the source gives them in different places.

Legend:
IKKα = target: T1, IKKα (Homo sapiens, UniProt O15111); experiment: MCE kinase assay, phosphorylation of FL-1 peptide by IKKα (secondary screen); assay type: biochemical; settings: for inhibition at 10 µM: read-out: percent inhibition of IKKα
T1 construct: purchased Life Technologies (Invitrogen)
T1 sequence (O15111 1-745): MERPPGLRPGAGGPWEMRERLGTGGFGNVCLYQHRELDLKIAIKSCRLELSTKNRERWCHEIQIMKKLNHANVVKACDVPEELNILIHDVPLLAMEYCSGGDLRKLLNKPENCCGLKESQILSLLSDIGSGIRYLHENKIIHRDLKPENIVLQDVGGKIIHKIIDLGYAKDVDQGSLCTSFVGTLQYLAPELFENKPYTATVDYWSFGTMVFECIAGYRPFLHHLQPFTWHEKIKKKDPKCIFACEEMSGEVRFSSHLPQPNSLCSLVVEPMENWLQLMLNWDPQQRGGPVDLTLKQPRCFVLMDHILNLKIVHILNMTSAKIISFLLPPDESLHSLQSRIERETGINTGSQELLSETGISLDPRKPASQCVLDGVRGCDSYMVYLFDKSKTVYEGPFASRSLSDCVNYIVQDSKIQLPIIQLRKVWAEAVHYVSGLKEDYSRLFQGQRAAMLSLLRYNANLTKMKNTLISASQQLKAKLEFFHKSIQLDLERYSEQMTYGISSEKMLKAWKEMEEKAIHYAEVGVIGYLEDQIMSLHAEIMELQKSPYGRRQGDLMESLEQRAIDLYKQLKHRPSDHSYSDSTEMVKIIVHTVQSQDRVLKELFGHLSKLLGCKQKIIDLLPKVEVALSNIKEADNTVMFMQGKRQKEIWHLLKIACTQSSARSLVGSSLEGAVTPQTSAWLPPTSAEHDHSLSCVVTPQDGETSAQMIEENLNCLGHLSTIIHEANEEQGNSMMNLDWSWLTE
Method: As IKKβ and IKKα are closely related to TBK1 and IKKε, it was important to determine the specificity of any candidate inhibitors. A secondary screen was therefore performed to evaluate the ability of the top-scoring TBK1 and IKKε inhibitors to inhibit the canonical IKKs. […] Enzyme concentrations were titrated and fixed to 11.5 µM for IKKα and 1.1 µM for IKKβ and the screen was performed as described above for TBK1 and IKKε. […]
Kinase buffer contained 50 mM Tris (pH 7.5), 12 mM MgCl2, 1 mM β-glycerophosphate, 100 µM ATP, and 10 µCi γ-^32P-ATP/reaction. Reactions were incubated at 30°C for 1h. Recombinant GST-TBK1 and GST-TBK1 K38A used in the positional scanning peptide library assay were generated as described above and the assay was performed as described previously, [28]. […]

IKKε = target: T2, IKKε (Homo sapiens, UniProt Q14164); experiment: MCE kinase assay, phosphorylation of 5-FAM-TBK1-Tide by IKKε; assay type: biochemical; settings: for inhibition at 10 µM: read-out: percent inhibition of IKKε
T2 construct: purchased Life Technologies (Invitrogen)
T2 sequence (Q14164 1-716): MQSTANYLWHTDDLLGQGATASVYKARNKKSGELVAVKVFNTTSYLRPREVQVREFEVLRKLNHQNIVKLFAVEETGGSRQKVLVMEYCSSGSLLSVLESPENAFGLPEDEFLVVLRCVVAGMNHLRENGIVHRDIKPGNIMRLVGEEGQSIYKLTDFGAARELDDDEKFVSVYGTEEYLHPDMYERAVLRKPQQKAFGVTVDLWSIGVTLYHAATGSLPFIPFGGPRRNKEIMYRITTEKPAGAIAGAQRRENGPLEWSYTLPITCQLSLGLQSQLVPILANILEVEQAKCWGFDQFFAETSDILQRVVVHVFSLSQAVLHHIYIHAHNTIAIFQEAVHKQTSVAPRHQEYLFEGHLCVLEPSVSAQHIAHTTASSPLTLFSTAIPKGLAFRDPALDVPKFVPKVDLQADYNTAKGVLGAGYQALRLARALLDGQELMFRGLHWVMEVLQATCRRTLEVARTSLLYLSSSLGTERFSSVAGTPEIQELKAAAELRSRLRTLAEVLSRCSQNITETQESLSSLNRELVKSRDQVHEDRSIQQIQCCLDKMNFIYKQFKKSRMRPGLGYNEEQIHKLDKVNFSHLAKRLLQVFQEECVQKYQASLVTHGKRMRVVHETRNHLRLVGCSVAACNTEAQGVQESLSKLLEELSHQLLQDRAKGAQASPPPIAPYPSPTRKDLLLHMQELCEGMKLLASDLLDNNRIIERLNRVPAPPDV
Method: (§1) MCE operates on the principle that small fluorescently-labeled peptide substrates from ∼100 nanoliter sized aliquots of reaction samples are separable in a capillary channel etched in a quartz microfluidic chip ratio when a current is applied, [30]. […] TBK1-Tide was synthesized with an N-terminal 5– Carboxyfluorescein (5-FAM) dye for use as a substrate. […] The enzyme concentrations were then titrated and fixed to 120 nM for TBK1 and 81 nM for IKKε.
(§2) Compounds were screened at a final concentration of 10 µM in 0.1% DMSO. Two libraries of compounds were tested. […] This library was tested in duplicate to establish the reproducibility of the screen (Figure S2). A second kinase-focused library consisting of 4,727 unique and “rule of five” compliant compounds was also tested (Figures 5A and B). […]

TBK1 = target: T3, TBK1 (Homo sapiens, UniProt Q9UHD2); experiment: MCE (microfluidic capillary electrophoresis) kinase assay, phosphorylation of 5-FAM-TBK1-Tide by TBK1; assay type: biochemical; settings: for inhibition at 10 µM: read-out: percent inhibition of TBK1
T3 construct: purchased Life Technologies (Invitrogen)
T3 sequence (Q9UHD2 1-729): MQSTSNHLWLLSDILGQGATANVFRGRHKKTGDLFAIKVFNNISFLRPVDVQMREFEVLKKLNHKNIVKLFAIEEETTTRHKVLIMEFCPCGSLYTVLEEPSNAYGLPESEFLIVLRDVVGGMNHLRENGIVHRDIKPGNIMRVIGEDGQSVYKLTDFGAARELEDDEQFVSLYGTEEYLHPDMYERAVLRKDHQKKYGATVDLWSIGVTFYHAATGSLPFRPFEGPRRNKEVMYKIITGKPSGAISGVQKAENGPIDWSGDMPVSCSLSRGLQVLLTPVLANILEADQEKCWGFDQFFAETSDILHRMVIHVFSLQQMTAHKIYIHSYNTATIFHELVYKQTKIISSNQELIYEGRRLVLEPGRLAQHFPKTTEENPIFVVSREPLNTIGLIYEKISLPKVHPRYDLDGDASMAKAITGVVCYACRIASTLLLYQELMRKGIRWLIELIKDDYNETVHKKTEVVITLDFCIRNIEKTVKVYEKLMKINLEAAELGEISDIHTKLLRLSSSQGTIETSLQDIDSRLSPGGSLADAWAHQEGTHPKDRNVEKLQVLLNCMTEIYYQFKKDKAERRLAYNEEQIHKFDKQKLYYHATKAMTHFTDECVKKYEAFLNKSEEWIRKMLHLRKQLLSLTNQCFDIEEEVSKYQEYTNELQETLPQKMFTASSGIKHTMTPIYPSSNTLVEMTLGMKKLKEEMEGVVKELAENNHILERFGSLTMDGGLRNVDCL
Method: as §1, §2

IKKβ = IKKβ (Homo sapiens, UniProt O14920); settings: read-out: ATP Km of IKKβ for TBK1-Tide; room temperature
Sequence of IKKβ (O14920 whole entry): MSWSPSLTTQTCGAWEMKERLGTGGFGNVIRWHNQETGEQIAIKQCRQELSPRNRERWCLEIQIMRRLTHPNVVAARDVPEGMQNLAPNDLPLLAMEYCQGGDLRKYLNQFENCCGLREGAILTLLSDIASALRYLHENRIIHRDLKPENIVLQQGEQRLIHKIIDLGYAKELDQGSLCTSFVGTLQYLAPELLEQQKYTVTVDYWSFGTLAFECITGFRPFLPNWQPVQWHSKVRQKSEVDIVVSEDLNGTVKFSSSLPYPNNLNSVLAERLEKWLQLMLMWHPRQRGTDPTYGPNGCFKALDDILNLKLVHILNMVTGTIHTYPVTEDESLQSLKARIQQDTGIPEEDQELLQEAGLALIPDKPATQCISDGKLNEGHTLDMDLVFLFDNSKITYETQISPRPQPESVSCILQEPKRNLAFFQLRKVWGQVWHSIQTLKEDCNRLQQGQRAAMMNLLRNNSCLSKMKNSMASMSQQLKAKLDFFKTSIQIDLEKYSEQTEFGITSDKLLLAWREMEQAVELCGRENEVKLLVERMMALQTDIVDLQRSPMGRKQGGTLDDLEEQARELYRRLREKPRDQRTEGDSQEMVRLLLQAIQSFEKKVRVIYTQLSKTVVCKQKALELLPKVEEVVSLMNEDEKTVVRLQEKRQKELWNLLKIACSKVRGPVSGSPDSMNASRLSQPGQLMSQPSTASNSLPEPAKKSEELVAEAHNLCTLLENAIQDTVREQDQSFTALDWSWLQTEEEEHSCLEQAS
Method: As IKKβ and IKKα are closely related to TBK1 and IKKε, it was important to determine the specificity of any candidate inhibitors. A secondary screen was therefore performed to evaluate the ability of the top-scoring TBK1 and IKKε inhibitors to inhibit the canonical IKKs. […] Enzyme concentrations were titrated and fixed to 11.5 µM for IKKα and 1.1 µM for IKKβ and the screen was performed as described above for TBK1 and IKKε.
5-FAM-labeled TBK1-Tide for library screening was generated in the High-Throughput Peptide Synthesis and Arrays Core Facility at University of North Carolina at Chapel Hill.
Kinase buffer contained 50 mM Tris (pH 7.5), 12 mM MgCl2, 1 mM β-glycerophosphate, 100 µM ATP, and 10 µCi γ-^32P-ATP/reaction. Reactions were incubated at 30°C for 1h. Recombinant GST-TBK1 and GST-TBK1 K38A used in the positional scanning peptide library assay were generated as described above and the assay was performed as described previously, [28]. […] IKKε reactions were incubated for 2 hours at room temperature and TBK1, IKKα, and IKKβ reactions were incubated for 6 hours at room temperature.

ERRα = test system: ERRα; design: method as in LOPAC library description; settings: transient transfection assays using GAL4-ERR LBD or full-length ERR with the mSHP promoter; ref LOPAC library description; cited from earlier work
[1] = compound at 10 µM, after 2 hours (at completion of the assay), LOPAC set

percent inhibition of IKKα (IKKα; [1]) [%]	percent inhibition of IKKε (IKKε; [1]) [%]	percent inhibition of TBK1 (TBK1; [1]) [%]	inhibition at 10 µM (IKKα; [1]) [%]	inhibition at 10 µM (IKKε; [1]) [%]	inhibition at 10 µM (TBK1; [1]) [%]	SMILES	other results
-3	48	84.5	–	–	–	CN(C)CCC(c1ccc(Cl)cc1)c1ccccn1.O=C(O)/C=C\C(=O)O (racemic) [UNC10100321, (±)-Chlorpheniramine maleate salt]	–
–	–	–	–	–	–	Nc1ncnc2c1ncn2[C@@H]1O[C@H](COP(=O)(O)OP(=O)(O)OP(=O)(O)O)[C@@H](O)[C@H]1O [ATP]	Km (IKKβ): 2 µM; Km (IKKα; room temperature, read-out: ATP Km of IKKα for FL-1): 134 µM; Km (IKKε; TBK1-Tide fixed at 1 µM, room temperature, read-out: Km for ATP, IKKε): 4.7 µM and 4.67 µM; Km (TBK1; TBK1-Tide fixed at 1 µM, room temperature, read-out: Km for ATP, TBK1): 7.5 µM and 7.54 µM
-2	26.5	70	–	–	–	Brc1ccc([C@H]2CN3CCSC3=N2)cc1.O=C(O)C(=O)O [UNC10100081, (−)-p-Bromolevamisole oxalate]	–
2.5	68	58	–	–	–	O=C1Nc2ccccc2/C1=C1/Nc2ccccc2/C1=N\O [UNC10100206, Indirubin-3′-oxime]	–
–	–	–	-0.5	60	34	CC(=O)OCC1=C(C(=O)O)N2C(=O)[C@@H](NC(=O)CSc3ccncc3)[C@H]2SC1 [UNC10100339, Cephapirin sodium salt]	–
–	–	–	10	53.5	76.5	Oc1c2ccccc2c2c3c(cccc13)N=N2 [UNC10100533, SP600125]	–
3	12.5	67.5	–	–	–	O=c1cc(-c2ccccc2F)[nH]c2cc3c(cc12)OCO3 [UNC10100799, CHM-1 hydrate]	–
–	–	–	21.5	66	85.5	COc1ccc2c(c1)/C(=C/c1cnc[nH]1)C(=O)N2 [UNC10100994, SU9516]	–
-0.5	20	80.5	–	–	–	CN(C)CCC(c1ccccc1)c1ccccn1.O=C(O)/C=C\C(=O)O (centres unmarked) [UNC10101037, Pheniramine maleate salt]	–
–	–	–	–	–	–	Nc1c(S(=O)(=O)O)cc(Nc2ccc(Nc3nc(Cl)nc(Nc4cccc(S(=O)(=O)O)c4)n3)c(S(=O)(=O)O)c2)c2c1C(=O)c1ccccc1C2=O [UNC10101110, Reactive Blue 2]	inhibition at 10 µM (IKKα): 55.5%; inhibition at 10 µM (IKKε): 67%; inhibition at 10 µM (TBK1): 74%
28	10.5	71.5	–	–	–	COc1cc(/C=C(\C#N)C(=O)Nc2nnc(C(F)(F)F)s2)ccc1OCc1ccc(C(F)(F)F)cc1C(F)(F)F [UNC10101318, XCT790]	IC50 (ERRα): […]

SMILES	percent inhibition of IKKα (IKKα; [1]) [%]	percent inhibition of IKKε (IKKε; [1]) [%]	percent inhibition of TBK1 (TBK1; [1]) [%]	inhibition at 10 µM (IKKα; [1]) [%]	inhibition at 10 µM (IKKε; [1]) [%]	inhibition at 10 µM (TBK1; [1]) [%]	other results
NC(Cc1cc(O)c(O)cc1O)C(=O)O (racemic) [UNC10100691, 6-Hydroxy-DL-DOPA]	29	61	77.5	–	–	–	–
CC(=O)NCCc1c[nH]c2ccccc12 [UNC10100161, N-Acetyltryptamine]	–	–	–	-1.5	24	74.5	–
